We go through one compound from paper PMC5152921, “Evolutionary and Functional Diversification of the Vitamin D Receptor-Lithocholic Acid Partnership” (PLoS ONE, 2016).

In general, Ki refers to the dissociation constant of the complex between target and ligand, obtained from inhibition or displacement. Read a low Ki as tighter binding.

Test [1] concerns the target T1, Zebrafish VDRβ (Danio rerio, UniProt Q1L673).
T1 sequence (Q1L673 1-422): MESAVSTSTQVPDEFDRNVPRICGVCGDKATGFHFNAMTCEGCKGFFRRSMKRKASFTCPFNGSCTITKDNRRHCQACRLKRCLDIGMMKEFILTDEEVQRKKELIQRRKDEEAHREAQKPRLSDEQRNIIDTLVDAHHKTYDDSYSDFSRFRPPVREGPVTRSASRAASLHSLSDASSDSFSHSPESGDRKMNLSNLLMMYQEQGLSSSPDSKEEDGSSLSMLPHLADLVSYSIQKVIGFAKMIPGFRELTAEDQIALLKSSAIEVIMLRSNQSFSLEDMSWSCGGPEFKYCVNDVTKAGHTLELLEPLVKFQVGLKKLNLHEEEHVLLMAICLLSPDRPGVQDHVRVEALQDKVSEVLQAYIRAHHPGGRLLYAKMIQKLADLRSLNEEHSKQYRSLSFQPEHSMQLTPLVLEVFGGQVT
The test is described as follows: Mammalian 2-hybrid assay (VDR-coregulator interaction, HepG2). The following applies: 100 μM LCA. Type of test: cell-based. More on the design: expressed in transfected cells; host or cells: HepG2. From the text: Prey constructs included full-length VDRs fused to the herpes simplex VP16 activation domain (pVP16-VDR). Bait constructs consisted of either full-length wild-type human RXR (pM-RXRWT), a truncated human RXR mutant (pM-RXRAF2), or the defined NR box of each member of the SRC/p160 family (pM-SRC1_241-386, pM-GRIP1_479-767, or pM-ACTR392-1005) fused to the yeast Gal4 DNA-binding domain. Reporters included the Gal4 luciferase reporter (5xGal4-TATA-Luc) and pRL-CMV as an internal luciferase control.
HepG2 cells were seeded into 96-well tissue culture plates as described above and transfected with Lipofectamine 2000 the following day. Each well received 33.6 ng pVP16-VDR, 33.6 ng pM-coregulator (where indicated), 126.6 ng 5XGal4-TATA-Luc, and 3 ng pRL-CMV. […] Positive controls were treated with 1,25D3 and vehicle controls were treated with ethanol. Luciferase activity was measured 24 hours post-exposure using the Dual-Glo Luciferase Assay System described above. Raw luciferase data were normalized to the pRL-CMV luciferase control. VDR-coregulator response was normalized to the pVP16-VDR in the absence of bait constructs. Results were analyzed using a two-way ANOVA followed by Bonferroni’s multiple comparisons test in Prism (GraphPad Inc, San Diego, CA). All experiments were replicated 3 times and conducted as groups of 4 replicate wells.

The target in test [2] is T1, Zebrafish VDRβ. The test is described as follows: Competitive ligand binding assay ([3H]-1,25D3 displacement). More on the design: 89.7 ng/well of full-length pSG5-VDR was co-transfected; expressed in transfected cells; host or cells: COS7. The following applies: lysate with VDR and human RXRWT; 4 nM [3H]-1,25D3; 18 hours at 4°C; Cheng-Prusoff; mean ± SEM. On the procedure:
Recombinant VDR and human RXRWT lysates were prepared from transfected COS7 cells (American Type Culture Collection #CRL-1651) as described in detail previously. Lysates were diluted 10-fold in ice-cold assay buffer (10 mM Tris HCl, 150 mM KCl, 1 mM EDTA, 0.3 mM ZnCl2, 5 mM DTT, and 1x protease inhibitor cocktail (100 μM AEBSF, 80 nM aprotinin, 5 μM bestatin, 1.5 μM E-64 (for cysteine proteases), 2 μM leupeptin, 1 μM pepstatin A), pH 7.5). […] Reactions were shaken to mix and incubated for 18 hours at 4°C. Bound and free ligand were separated with the addition of 80 μL of ice-cold separation buffer (2.5% (w/v) activated charcoal, 0.5% (w/v) dextran, 100 mM Na2HPO4, 39 mM NaH2PO4, 150 mM NaCl, 15 mM NaN3, 10% gelatin, pH 7.0), and incubated at 4°C for 15 minutes with shaking every 5 minutes. Reactions were centrifuged at 5,000 x g for 5 minutes at 4°C, and 200 μL of the supernatant containing the VDR-bound ligands was removed for scintillation counting.
Total binding was determined using lysate from cells transfected with VDR, and nonspecific binding was determined using lysate from cells transfected with the empty pSG5 vector. Specific binding was determined by subtracting non-specific binding counts from the total binding counts.

On to `C[C@H](CCC(=O)O)[C@H]1CC[C@H]2[C@@H]3CC[C@@H]4C[C@H](O)CC[C@]4(C)[C@H]3CC[C@]12C` [LCA, 5β-cholanic acid-3α-ol], for which the “VDR-RXRWT interaction (heterodimerization)” value on Zebrafish VDRβ [1] (bait human RXRWT, presence and absence of SRC1) is “not observed”. The VDR-SRC1 interaction result on Zebrafish VDRβ [1] (cotransfection of RXRWT) is “strong VDR-SRC1 interactions”. The inhibition constant (Ki) on Zebrafish VDRβ [2] is 6.7 ± 1.9 µM.
